# ± gives the standard deviation of the averaged measurements.
# How the values were obtained:
# [1] = compound: CC[C@@H](C(=O)[C@@H](C)[C@@H](O)[C@H](C)[C@@H]1O[C@@H]([C@@H](CC)C(=O)O)CC[C@@H]1C)[C@H]1O[C@]2(C=C[C@@H](O)[C@]3(CC[C@@](C)([C@H]4CC[C@](O)(CC)[C@H](C)O4)O3)O2)[C@H](C)C[C@@H]1C [SALINOMYCIN]; assay: surviving fraction relative to DMSO-only wells; higher = less growth inhibition; details: exposure time: 5 days
# In short: (§1)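 Surviving fraction is CellTiter-Glo luminescence divided by the median of wells given DMSO only. For this, log-phase tumour cell lines went into 384-well plates at 250–500 cells per well and, 24 hours later, into five days of continuous inhibitor exposure at 0.5, 1, 5, 10, 50, 100, 500 and 1000 nM. Lines were screened three times and retained only if replicate Pearson r >0.7 and median Z' >0.3.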
# [2] = compound: COc1ccc(C2=N[C@@H](c3ccc(Cl)cc3)[C@@H](c3ccc(Cl)cc3)N2C(=O)N2CCNC(=O)C2)c(OC(C)C)c1 [NUTLIN3]; assay: as above; details: exposure time: 5 days
# In short: as §1
test system,measurement,setting,value
MDAMB361 BREAST,surviving fraction,[1]; 0.5 nM,0.826 ± 0.086
same,surviving fraction,[1]; 1 nM,0.866 ± 0.041
same,surviving fraction,[1]; 5 nM,0.877 ± 0.0093
same,surviving fraction,[1]; 10 nM,0.845 ± 0.058
same,surviving fraction,[1]; 50 nM,0.909 ± 0.047
same,surviving fraction,[1]; 100 nM,0.845 ± 0.035
same,surviving fraction,[1]; 500 nM,0.753 ± 0.014
same,surviving fraction,[1]; 1000 nM,0.638 ± 0.0085
same,surviving fraction,[2]; 0.5 nM,0.854 ± 0.032
same,surviving fraction,[2]; 1 nM,0.793 ± 0.036
same,surviving fraction,[2]; 5 nM,0.809 ± 0.075
same,surviving fraction,[2]; 10 nM,0.844 ± 0.097
same,surviving fraction,[2]; 50 nM,0.887 ± 0.12
same,surviving fraction,[2]; 100 nM,0.923 ± 0.063
same,surviving fraction,[2]; 500 nM,0.907 ± 0.067
same,surviving fraction,[2]; 1000 nM,0.825 ± 0.025
MDAMB436 BREAST,surviving fraction,[1]; 0.5 nM,0.858 ± 0.039
same,surviving fraction,[1]; 1 nM,0.902 ± 0.047
same,surviving fraction,[1]; 5 nM,0.668 ± 0.033
same,surviving fraction,[1]; 10 nM,0.567 ± 0.042
same,surviving fraction,[1]; 50 nM,0.464 ± 0.059
same,surviving fraction,[1]; 100 nM,0.375 ± 0.049
same,surviving fraction,[1]; 500 nM,0.105 ± 0.0028
same,surviving fraction,[1]; 1000 nM,0.0963 ± 0.0055
same,surviving fraction,[2]; 0.5 nM,0.91 ± 0.076
same,surviving fraction,[2]; 1 nM,0.835 ± 0.092
same,surviving fraction,[2]; 5 nM,0.923 ± 0.033
same,surviving fraction,[2]; 10 nM,0.928 ± 0.063
same,surviving fraction,[2]; 50 nM,0.924 ± 0.074
same,surviving fraction,[2]; 100 nM,0.895 ± 0.12
same,surviving fraction,[2]; 500 nM,0.881 ± 0.041
same,surviving fraction,[2]; 1000 nM,0.941 ± 0.074
MDAMB453 BREAST,surviving fraction,[1]; 0.5 nM,0.969 ± 0.025
same,surviving fraction,[1]; 1 nM,0.9587 ± 0.0015
same,surviving fraction,[1]; 5 nM,0.978 ± 0.027
same,surviving fraction,[1]; 10 nM,0.9897 ± 0.009
same,surviving fraction,[1]; 50 nM,1.02 ± 0.058
same,surviving fraction,[1]; 100 nM,0.993 ± 0.045
same,surviving fraction,[1]; 500 nM,0.56 ± 0.032
same,surviving fraction,[1]; 1000 nM,0.426 ± 0.06
same,surviving fraction,[2]; 0.5 nM,1.02 ± 0.053
same,surviving fraction,[2]; 1 nM,1.05 ± 0.029
same,surviving fraction,[2]; 5 nM,1.07 ± 0.053
same,surviving fraction,[2]; 10 nM,1.08 ± 0.024
same,surviving fraction,[2]; 50 nM,1.13 ± 0.083
same,surviving fraction,[2]; 100 nM,1.13 ± 0.13
same,surviving fraction,[2]; 500 nM,1.04 ± 0.066
same,surviving fraction,[2]; 1000 nM,1.05 ± 0.035
MDAMB468 BREAST,surviving fraction,[1]; 0.5 nM,1 ± 0.02
same,surviving fraction,[1]; 1 nM,1 ± 0.087
same,surviving fraction,[1]; 5 nM,1.04 ± 0.026
same,surviving fraction,[1]; 10 nM,1.01 ± 0.052
same,surviving fraction,[1]; 50 nM,1.12 ± 0.022
same,surviving fraction,[1]; 100 nM,1.09 ± 0.04
same,surviving fraction,[1]; 500 nM,0.648 ± 0.054
same,surviving fraction,[1]; 1000 nM,0.329 ± 0.018
same,surviving fraction,[2]; 0.5 nM,0.994 ± 0.026
same,surviving fraction,[2]; 1 nM,0.978 ± 0.019
same,surviving fraction,[2]; 5 nM,1.07 ± 0.071
same,surviving fraction,[2]; 10 nM,1.02 ± 0.067
same,surviving fraction,[2]; 50 nM,1.06 ± 0.07
same,surviving fraction,[2]; 100 nM,1.04 ± 0.076
same,surviving fraction,[2]; 500 nM,1.04 ± 0.049
same,surviving fraction,[2]; 1000 nM,0.982 ± 0.041
MFM223 BREAST,surviving fraction,[1]; 0.5 nM,1.08 ± 0.091
same,surviving fraction,[1]; 1 nM,1.05 ± 0.024
same,surviving fraction,[1]; 5 nM,1.03 ± 0.03
same,surviving fraction,[1]; 10 nM,1.01 ± 0.036
same,surviving fraction,[1]; 50 nM,0.979 ± 0.051
same,surviving fraction,[1]; 100 nM,0.461 ± 0.03
same,surviving fraction,[1]; 500 nM,0.0642 ± 0.0082
same,surviving fraction,[1]; 1000 nM,0.0428 ± 0.0051
same,surviving fraction,[2]; 0.5 nM,1.07 ± 0.079
same,surviving fraction,[2]; 1 nM,1.04 ± 0.13
same,surviving fraction,[2]; 5 nM,1.08 ± 0.058
same,surviving fraction,[2]; 10 nM,1.06 ± 0.027
same,surviving fraction,[2]; 50 nM,1.12 ± 0.045
same,surviving fraction,[2]; 100 nM,1.12 ± 0.073
same,surviving fraction,[2]; 500 nM,1.12 ± 0.063
same,surviving fraction,[2]; 1000 nM,1.07 ± 0.068
MG63 BONE,surviving fraction,[1]; 0.5 nM,0.963 ± 0.02
same,surviving fraction,[1]; 1 nM,0.941 ± 0.032
same,surviving fraction,[1]; 5 nM,0.98 ± 0.021
same,surviving fraction,[1]; 10 nM,0.946 ± 0.045
same,surviving fraction,[1]; 50 nM,1.006 ± 0.003
same,surviving fraction,[1]; 100 nM,0.871 ± 0.0095
same,surviving fraction,[1]; 500 nM,0.167 ± 0.0053
same,surviving fraction,[1]; 1000 nM,0.081 ± 0.0044
same,surviving fraction,[2]; 0.5 nM,1.01 ± 0.039
same,surviving fraction,[2]; 1 nM,1 ± 0.014
same,surviving fraction,[2]; 5 nM,1.07 ± 0.046
same,surviving fraction,[2]; 10 nM,1.05 ± 0.019
same,surviving fraction,[2]; 50 nM,1.06 ± 0.029
same,surviving fraction,[2]; 100 nM,1.05 ± 0.018
same,surviving fraction,[2]; 500 nM,0.989 ± 0.042
same,surviving fraction,[2]; 1000 nM,1.01 ± 0.043
MHM BONE,surviving fraction,[1]; 0.5 nM,0.988 ± 0.042
same,surviving fraction,[1]; 1 nM,0.981 ± 0.046
same,surviving fraction,[1]; 5 nM,1.01 ± 0.019
same,surviving fraction,[1]; 10 nM,0.9657 ± 0.0042
same,surviving fraction,[1]; 50 nM,1.037 ± 0.009
same,surviving fraction,[1]; 100 nM,1.081 ± 0.0025
same,surviving fraction,[1]; 500 nM,0.921 ± 0.044
same,surviving fraction,[1]; 1000 nM,0.694 ± 0.054
same,surviving fraction,[2]; 0.5 nM,0.995 ± 0.017
same,surviving fraction,[2]; 1 nM,0.998 ± 0.019
same,surviving fraction,[2]; 5 nM,1.03 ± 0.028
same,surviving fraction,[2]; 10 nM,1.02 ± 0.024
same,surviving fraction,[2]; 50 nM,1.01 ± 0.023
same,surviving fraction,[2]; 100 nM,1.02 ± 0.046
same,surviving fraction,[2]; 500 nM,0.963 ± 0.018
same,surviving fraction,[2]; 1000 nM,0.9187 ± 0.0085
NCIH441 LUNG,surviving fraction,[1]; 0.5 nM,1.01 ± 0.034
same,surviving fraction,[1]; 1 nM,1.01 ± 0.038
same,surviving fraction,[1]; 5 nM,1.06 ± 0.054
same,surviving fraction,[1]; 10 nM,0.904 ± 0.06
same,surviving fraction,[1]; 50 nM,1.12 ± 0.023
same,surviving fraction,[1]; 100 nM,1.05 ± 0.049
same,surviving fraction,[1]; 500 nM,0.715 ± 0.049
same,surviving fraction,[1]; 1000 nM,0.504 ± 0.061
same,surviving fraction,[2]; 0.5 nM,1.04 ± 0.092
same,surviving fraction,[2]; 1 nM,1.04 ± 0.028
same,surviving fraction,[2]; 5 nM,1.01 ± 0.058
same,surviving fraction,[2]; 10 nM,1.05 ± 0.051
same,surviving fraction,[2]; 50 nM,1.07 ± 0.095
same,surviving fraction,[2]; 100 nM,1.08 ± 0.1
same,surviving fraction,[2]; 500 nM,1.2 ± 0.06
same,surviving fraction,[2]; 1000 nM,1.14 ± 0.065
NOS1 BONE,surviving fraction,[1]; 0.5 nM,1.01 ± 0.071
same,surviving fraction,[1]; 1 nM,1.07 ± 0.15
same,surviving fraction,[1]; 5 nM,1.09 ± 0.025
same,surviving fraction,[1]; 10 nM,1.05 ± 0.066
same,surviving fraction,[1]; 50 nM,1.06 ± 0.083
same,surviving fraction,[1]; 100 nM,1.09 ± 0.062
same,surviving fraction,[1]; 500 nM,0.0907 ± 0.013
same,surviving fraction,[1]; 1000 nM,0.0537 ± 0.007
same,surviving fraction,[2]; 0.5 nM,1.14 ± 0.072
same,surviving fraction,[2]; 1 nM,0.978 ± 0.1
same,surviving fraction,[2]; 5 nM,1.142 ± 0.0078
same,surviving fraction,[2]; 10 nM,1.17 ± 0.16
same,surviving fraction,[2]; 50 nM,1.14 ± 0.071
same,surviving fraction,[2]; 100 nM,1.15 ± 0.1
same,surviving fraction,[2]; 500 nM,1.08 ± 0.042
same,surviving fraction,[2]; 1000 nM,1.08 ± 0.04
NY BONE,surviving fraction,[1]; 0.5 nM,0.929 ± 0.024
same,surviving fraction,[1]; 1 nM,0.9297 ± 0.0087
same,surviving fraction,[1]; 5 nM,0.965 ± 0.018
same,surviving fraction,[1]; 10 nM,0.928 ± 0.021
same,surviving fraction,[1]; 50 nM,0.851 ± 0.028
same,surviving fraction,[1]; 100 nM,0.654 ± 0.0095
same,surviving fraction,[1]; 500 nM,0.241 ± 0.009
same,surviving fraction,[1]; 1000 nM,0.136 ± 0.0072
same,surviving fraction,[2]; 0.5 nM,1 ± 0.019
same,surviving fraction,[2]; 1 nM,0.95 ± 0.034
same,surviving fraction,[2]; 5 nM,0.997 ± 0.033
same,surviving fraction,[2]; 10 nM,1.015 ± 0.0098
same,surviving fraction,[2]; 50 nM,1.05 ± 0.048
same,surviving fraction,[2]; 100 nM,1.01 ± 0.034
same,surviving fraction,[2]; 500 nM,0.925 ± 0.036
same,surviving fraction,[2]; 1000 nM,0.972 ± 0.012
